Laboratory results as given in publication PMC12735718, “Novel Adamantane–Sclareol Hybrids Exploit ROS Vulnerability to Overcome Multidrug-Resistance in Glioblastoma Cells” (Molecules, 2025).

How the values were obtained:
[1] = system: ASK1 protein in U87-TxR cells; test: ASK1 protein expression by flow cytometry, U87-TxR; assay type: cell-based, human; settings: 48 h; for ASK1 protein levels: 2 µM and 4 µM
Description: Flow cytometry was used to assess TrxR1 and ASK1 protein expression in the U87 and U87-TxR cell lines. Cells were seeded and allowed to attach overnight before exposure to compounds 2 and 5 at final concentrations of 2 μM and 4 μM. After 48 h treatment, cells were collected by trypsinization, rinsed with PBS, and subsequently fixed in 4% PFA for 10 min at room temperature. For permeabilization, ice-cold absolute methanol was added, and the samples were maintained at −20 °C overnight. Following this step, cells were washed in PBS and incubated for 1 h in 0.5% BSA/PBS to block nonspecific binding. Pelleted cells were then resuspended in primary antibodies diluted in 0.5% BSA/PBS [(ASK1, 1:200 (ab45178, Abcam, Cambridge, UK); TrxR1, 1:500 (ab124954, Abcam, Cambridge, UK)] and incubated overnight at +4 °C. Cells were then washed in PBS and incubated for 1 h at room temperature in the dark with fluorescently labeled anti-rabbit IgG secondary antibody (Alexa Fluor 488, ab150097, Abcam, Cambridge, UK), diluted 1:1000 in 0.5% BSA/PBS. Following incubation, samples were washed, resuspended in cold PBS, and analyzed by flow cytometry. A minimum of 10,000 events per sample were acquired, and fluorescence was detected in a green fluorescence channel (525 nm). Data acquisition and processing were performed using CytExpert software (version 2.4.0.28; Beckman Coulter, Indianapolis, IN, USA).

[2] = system: antioxidant-related gene mRNA in U87-TxR cells; test: RT-qPCR of oxidative-stress-related genes, U87-TxR; assay type: cell-based, human; settings: 4 µM, 24 h; for increase in GPX1 mRNA expression: relative to untreated control
Description: Prior to RNA isolation, U87 and U87-TxR cell were treated with 4 μM 2 and 5 for 24 h. TRIzol® Reagent was used to isolate total RNA according to manufacturer’s instructions. RNA concentration was determined with NanoPhotometer N60 (Implen GmbH, Munchen, Germany). Quality was determined using electrophoresis on a 1.3% agarose gel. Reverse transcription reaction was carried out using High-Capacity cDNA Reverse Transcription Kit with RNase Inhibitor.
Quantitative RT-PCR (RT-qPCR) was performed to evaluate mRNA expression levels of CAT, GSR, SOD2, GPX1, GPX4, GST, TRX1, and TRXR1, with ACTB used as the reference gene. Reactions were carried out using Maxima SYBR Green/ROX qPCR Master Mix (Thermo Fisher Scientific, Waltham, MA, USA) in the QuantStudio™ 3 Real-Time PCR System (Applied Biosystems by Thermo Fisher Scientific). Thermocycling conditions consisted of an initial incubation at 50 °C for 5 min, followed by denaturation at 95 °C for 10 min and then 40 cycles of amplification with denaturation at 95 °C for 15 s and annealing/extension at 60 °C for 60 s. Relative gene expression levels were calculated using the ΔΔCt method, normalizing target gene expression to ACTB. All reactions were performed in technical triplicates.

[3] = system: U87 cells; test: MTT cell viability assay, U87; assay type: cell-based; settings: Homo sapiens, U-87 MG, 72 h treatment
Description: (§1) Cell viability was measured using the colorimetric MTT assay based on the reduction of MTT into formazan dye. Cell lines were seeded into 96-well cell culture plates (4000 cells/well) in appropriate medium. After overnight incubation, cells were treated with increasing concentrations of 1, 2, 3, 4, 5, and 6 (0.5, 1, 2, 4, and 8 µM). After 72 h treatment, MTT solution (4 mg/mL) was added and plates were incubated at 37 °C with 5% CO2 for 3 h. After incubation, formazan crystals were dissolved using 100 µL DMSO, resulting in a purple color. The absorbance was measured at 570 nm with a reference wavelength of 690 nm using an automated microplate reader (MultiskanSky, Thermo Scientific, USA). The IC50 values were determined by non-linear regression analysis in GraphPad Prism 8.0.2. software (GraphPad Software, Boston, MA, USA).

[4] = molecular target: T1, P-gp (U87-TxR cells) (Homo sapiens, UniProt P08183); test: Rhodamine 123 accumulation assay; assay type: cell-based; settings: highest concentration, 30 min
T1 construct: Studies were carried out with 2, 5, and TQ in U87-TxR cells with P-gp overexpression; endogenous in cells; host or cells: U87-TxR (paclitaxel-selected from U87)
Description: Studies were carried out with 2, 5, and TQ in U87-TxR cells with P-gp overexpression. Sensitive U87 cells were used as a positive control for Rho 123 accumulation. U87-TxR cells were seeded in 6-well plates at a density of 100,000 cells/well and incubated overnight. Then, the cells were treated with 1 μM and 2 μM of compounds 2 and 5 for 24 h, 48 h, and 72 h. Thereafter, cells were incubated with 2 μM Rho 123 for an additional 30 min at 37 °C in 5% CO2. In another experimental setting, 2 μM Rho123 was simultaneously applied with increasing concentrations of 2 or 5 (1 μM, 2 μM, and 4 μM) for 30 min. At the end of the accumulation period, the samples were washed twice, resuspended in 1 mL of cold PBS, and analyzed using a CytoFLEX flow cytometer (Beckman Coulter, Indianapolis, IN, USA). The fluorescence was read in a green fluorescence channel (525 nm). At least 10, 000 events were assayed for each sample. Data were analyzed using CytExpert 2.4.0.28 software (Beckman Coulter, Indianapolis, IN, USA).

[5] = system: P-gp; design: method as in PMID 40939538; settings: non-small cell lung carcinoma sensitive and MDR P-gp-overexpressing cells ref 23; cited from earlier work
[6] = system: U87-TxR cells; test: Combination with PTX, MTT assay; assay type: cell-based, human; settings: for combination index (CI) with PTX: CalcuSyn, 0.5-2 µM compound with 0.1-0.5 µM PTX, 72 h, CI < 1 synergistic
Description: as §1
The combined effects of 2 and 5 with PTX were studied in U87-TxR cells by MTT assay as previously described. In simultaneous treatments that lasted 72 h, three concentrations of 2 and 5 (0.5, 1, and 2 µM) were combined with three concentrations of PTX (0.1 μM, 0.2 μM, and 0.5 μM). Drug combination effects were evaluated using the Chou–Talalay method, which calculates the combination index (CI) value for the degree of interaction between the drugs. This method allows quantitative assessment of synergism (CI < 1), additivity (CI close to 1), or antagonism (CI > 1) across a range of dose–effect relationships. Calcusyn® version 1.1 software was used for data analysis (Biosoft, Cambridge UK). Three data points were used for each single drug in each designed experiment. The non-constant ratio combination was chosen to assess the effect of both drugs in combination. The results are presented in a fraction-affected CI graph.

T1 sequence (P08183 whole entry): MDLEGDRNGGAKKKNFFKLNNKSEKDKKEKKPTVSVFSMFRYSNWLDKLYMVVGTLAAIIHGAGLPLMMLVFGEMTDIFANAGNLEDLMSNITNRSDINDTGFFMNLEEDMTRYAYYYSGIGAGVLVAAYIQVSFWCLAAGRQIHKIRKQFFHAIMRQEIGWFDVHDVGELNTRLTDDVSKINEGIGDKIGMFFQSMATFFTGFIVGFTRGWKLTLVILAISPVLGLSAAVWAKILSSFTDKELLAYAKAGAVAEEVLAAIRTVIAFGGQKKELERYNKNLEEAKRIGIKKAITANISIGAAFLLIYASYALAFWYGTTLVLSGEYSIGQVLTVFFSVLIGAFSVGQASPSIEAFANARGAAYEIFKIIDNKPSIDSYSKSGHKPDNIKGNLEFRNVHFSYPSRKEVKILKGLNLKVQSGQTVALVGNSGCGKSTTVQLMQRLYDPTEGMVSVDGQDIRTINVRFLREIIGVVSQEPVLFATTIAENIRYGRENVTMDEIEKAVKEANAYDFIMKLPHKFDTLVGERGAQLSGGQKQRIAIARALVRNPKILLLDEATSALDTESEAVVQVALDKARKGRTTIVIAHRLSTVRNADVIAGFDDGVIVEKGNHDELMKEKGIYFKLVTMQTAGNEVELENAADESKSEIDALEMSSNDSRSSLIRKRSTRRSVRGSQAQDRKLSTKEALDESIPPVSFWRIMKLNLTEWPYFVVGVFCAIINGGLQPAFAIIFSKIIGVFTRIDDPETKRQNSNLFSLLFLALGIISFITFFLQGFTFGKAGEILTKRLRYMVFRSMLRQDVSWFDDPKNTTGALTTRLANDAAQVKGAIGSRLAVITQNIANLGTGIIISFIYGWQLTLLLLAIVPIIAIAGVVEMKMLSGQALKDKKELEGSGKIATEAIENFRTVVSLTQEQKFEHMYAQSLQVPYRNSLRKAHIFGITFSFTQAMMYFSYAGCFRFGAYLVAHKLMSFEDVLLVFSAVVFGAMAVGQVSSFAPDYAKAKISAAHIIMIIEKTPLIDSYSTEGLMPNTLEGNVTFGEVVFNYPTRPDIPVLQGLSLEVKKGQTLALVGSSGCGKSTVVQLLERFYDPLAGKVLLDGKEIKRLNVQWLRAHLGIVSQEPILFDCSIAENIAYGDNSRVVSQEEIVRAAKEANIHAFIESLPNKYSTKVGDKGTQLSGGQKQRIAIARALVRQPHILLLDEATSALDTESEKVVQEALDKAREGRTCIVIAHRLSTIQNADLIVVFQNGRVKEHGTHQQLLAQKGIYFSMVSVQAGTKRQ

Question: Which ASK1 protein levels [1] does the source give for CC1(C)CCC[C@]2(C)[C@@H](CC[C@@](C)(O)/C=C/c3ccc(CNCCCCCCCCNCC45CC6CC(CC(C6)C4)C5)o3)[C@](C)(O)CC[C@@H]12 [Compound 5] here?
Answer: The ASK1 protein levels was “increased”.

Question: What about the ASK1 expression ([1]; 4 µM, not statistically significant) of the same compound?
Answer: The ASK1 expression was “slightly increased”.

Question: And the “CAT mRNA expression levels” value [2]?
Answer: Its value is “remained unchanged”.

Question: What about the GSTP gene expression [2] of the same compound?
Answer: Its GSTP gene expression is “significantly increased”.

Question: What about the “mRNA expression of SOD2, GSR, and GPX4” value [2] of the same compound?
Answer: The value was “increase”.

Question: And the “increase in GPX1 mRNA expression” value [2]?
Answer: Its value is 1.5 fold.

Question: And the IC50 [3]?
Answer: Its IC50 is 5.13 ± 0.139 µM.

Question: And the “Rho 123 accumulation vs TQ (50 nM)” value [4]?
Answer: Its value is “comparable to TQ”.

Question: And the P-gp interaction [5]?
Answer: The P-gp interaction was “P-gp substrate”.

Question: What about the “Relative Reversal” value ([6]; 0.5 µM of the compound) of the same compound?
Answer: The value was 0.86.

Question: And the “Relative Reversal” value ([6]; 1.0 µM of the compound)?
Answer: The value was 1.85.

Question: What about the “Relative Reversal” value ([6]; 2.0 µM of the compound) of the same compound?
Answer: The value was 1.76.

Question: What about the “combination index (CI) with PTX” value [6] of the same compound?
Answer: The value was < 1.

Question: With CC1(C)CCC[C@]2(C)[C@@H](CC[C@@](C)(O)/C=C/c3ccc(CNCCCCCCCCNCC45CC6CC(CC(C6)C4)C5)s3)[C@](C)(O)CC[C@@H]12 [Compound 2] as the compound, how does the ASK1 protein levels [1] read?
Answer: The ASK1 protein levels was “increased”.

Question: And the “CAT mRNA expression levels” value [2]?
Answer: The value was “remained unchanged”.

Question: What about the GSTP gene expression [2] of the same compound?
Answer: The GSTP gene expression was “significantly increased”.

Question: And the “mRNA expression of SOD2, GSR, and GPX4” value [2]?
Answer: The value was “increase”.

Question: And the “increase in GPX1 mRNA expression” value [2]?
Answer: Its value is 1.9 fold.

Question: What about the IC50 [3] of the same compound?
Answer: Its IC50 is 2.59 ± 0.068 µM.

Question: What about the “Rho 123 accumulation vs TQ (50 nM)” value [4] of the same compound?
Answer: Its value is “comparable to TQ”.

Question: What about the P-gp interaction [5] of the same compound?
Answer: The P-gp interaction was “P-gp inhibitor”.

Question: And the “Relative Reversal” value ([6]; 0.5 µM of the compound)?
Answer: Its value is 1.75.

Question: What about the “Relative Reversal” value ([6]; 1.0 µM of the compound) of the same compound?
Answer: Its value is 1.68.

Question: And the “Relative Reversal” value ([6]; 2.0 µM of the compound)?
Answer: Its value is 3.05.

Question: And the “combination index (CI) with PTX” value [6]?
Answer: The value was < 1.
